Results: patent US5051499A, “Novel nucleoside-phospholipid conjugate” (Toyo Jozo Kabushiki Kaisha, priority 1986, dated 1991)

The compounds below were run on P-388 leukemic cells (assay: Antitumor activity against mouse leukemia P-388, increase in life span (ILS)). Settings: P388, ip, 120 h, Table 2, i.p., once a day for 5 days, BDF1 mice.
Format: in vivo
Design: dose or concentration left out as unconfirmed
Experimental: Antitumor activity against mouse leukemia P-388 carcinoma is shown in the ensuring examples, according to the following list of specifications:
2. Animal: BDF1 mice, age 5 weeks, male, Charles River Inc., 5 mice in an experimental group at 7 control mice.
3. Tumor cells: P-388 leukemic cells; 1×10^6 /0.2 ml are inoculated intraperitoneally in BDF1 mice of the experimental group.
4. Preparation of samples and administration of drugs:
Samples are suspended in Tris-HCl saline solution by sonification. 0.1 ml/10g body weight is administered.
Administration: starting one day after inoculation of tumor cells, once a day for 5 days intraperiotoneally.
5. Increase in life span (ILS) is calculated by the following equation: [formula]
Average survival date in control group is 7.86 days (7.57-7.93 days).
CCCCCCCC/C=C\CCCCCCCCOCC(COP(=O)(O)OC[C@H]1O[C@@H](n2cc(F)c(N)nc2=O)[C@@H](O)[C@@H]1O)OCCCCCCCC/C=C\CCCCCCCC (stereo partly drawn) [oleyl oleeyl AraFC] was tested, and the ILS was 148%.
CCCCCCCCCCCCCCCCOCC(COP(=O)(O)OC[C@H]1O[C@@H](n2cc(F)c(N)nc2=O)[C@@H](O)[C@@H]1O)OCCCCCCCCCCCCCCCC (stereo partly drawn) [cetyl cetyl AraFC] gave an ILS of 152%.
With CCCCCCCCCCCCCCCCOCC(COP(=O)(O)OCC1=C[C@@H](n2cnc3c(N)ncnc32)[C@H](O)[C@@H]1O)OCCCCCCCCCCCCCCCC (stereo partly drawn) [cetyl cetyl NepA] the ILS was 34.9%.
In the case of CCCCCCCCCCCCCCCCCCOCC(COP(=O)(O)OCC1=C[C@@H](n2cnc3c(N)ncnc32)[C@H](O)[C@@H]1O)OCCCCCCCCCCCCCCCCCC (stereo partly drawn) [stearyl stearyl NepA], the ILS is reported as 31%.
With CCCCCCCCCCCCCCCCCCOCC(COP(=O)(O)OC[C@H]1O[C@@H](n2cc(F)c(N)nc2=O)[C@@H](O)[C@@H]1O)OCCCCCCCCCCCCCCCCCC (stereo partly drawn) [stearyl stearyl AraFC] the ILS was 61%.
CCCCCCCC/C=C\CCCCCCCCOCC(COP(=O)(O)OC[C@H]1O[C@@H](n2cc(F)c(=O)[nH]c2=O)[C@H](O)[C@@H]1O)OCCCCCCCC/C=C\CCCCCCCC (stereo partly drawn) [oleyl oleyl FUR] was tested, and the ILS was 76%.
CCCCCCCCCCCCCCCCOCC(COP(=O)(O)OC[C@H]1O[C@@H](n2cc(F)c(=O)[nH]c2=O)[C@H](O)[C@@H]1O)OCCCCCCCCCCCCCCCC (stereo partly drawn) [cetyl cetyl FUR] was tested, and the ILS was 127%.
Work on CCCCCCCCCCCCCCCCCCOCC(COP(=O)(O)OC[C@H]1O[C@@H](n2cc(F)c(=O)[nH]c2=O)[C@H](O)[C@@H]1O)OCCCCCCCCCCCCCCCCCC (stereo partly drawn) [stearyl stearyl FUR] yielded an ILS of 31%.
In the case of CCCCCCCC/C=C\CCCCCCCCOCC(COP(=O)(O)OCC1=C[C@@H](n2cnc3c(N)ncnc32)[C@H](O)[C@@H]1O)OCCCCCCCC/C=C\CCCCCCCC (stereo partly drawn) [oleyl oleyl NepA], the ILS is reported as 26%.
